Test results: ChEMBL document CHEMBL5653615 (J Biol Chem, 2013)

Tests used:
[1] = biological target: Mitogen-activated protein kinase kinase kinase 20 (Homo sapiens) (UniProt Q9NYL2); assay: Inhibition of human MLTK at 18.6 nM by HotSpot assay relative to control
[2] = biological target: Mitogen-activated protein kinase kinase kinase 8 (Homo sapiens) (UniProt P41279); assay: Inhibition of human COT1 at 18.6 nM by HotSpot assay relative to control
[3] = biological target: Tyrosine-protein kinase Lyn (Homo sapiens) (UniProt P07948); assay: Inhibition of human LYN B at 18.6 nM by HotSpot assay relative to control
[4] = biological target: T1, Dual serine/threonine and tyrosine protein kinase (Homo sapiens) (UniProt Q6XUX3); assay: Inhibition of human RIPK5 at 500 nM by HotSpot assay relative to control
T1 sequence (whole entry): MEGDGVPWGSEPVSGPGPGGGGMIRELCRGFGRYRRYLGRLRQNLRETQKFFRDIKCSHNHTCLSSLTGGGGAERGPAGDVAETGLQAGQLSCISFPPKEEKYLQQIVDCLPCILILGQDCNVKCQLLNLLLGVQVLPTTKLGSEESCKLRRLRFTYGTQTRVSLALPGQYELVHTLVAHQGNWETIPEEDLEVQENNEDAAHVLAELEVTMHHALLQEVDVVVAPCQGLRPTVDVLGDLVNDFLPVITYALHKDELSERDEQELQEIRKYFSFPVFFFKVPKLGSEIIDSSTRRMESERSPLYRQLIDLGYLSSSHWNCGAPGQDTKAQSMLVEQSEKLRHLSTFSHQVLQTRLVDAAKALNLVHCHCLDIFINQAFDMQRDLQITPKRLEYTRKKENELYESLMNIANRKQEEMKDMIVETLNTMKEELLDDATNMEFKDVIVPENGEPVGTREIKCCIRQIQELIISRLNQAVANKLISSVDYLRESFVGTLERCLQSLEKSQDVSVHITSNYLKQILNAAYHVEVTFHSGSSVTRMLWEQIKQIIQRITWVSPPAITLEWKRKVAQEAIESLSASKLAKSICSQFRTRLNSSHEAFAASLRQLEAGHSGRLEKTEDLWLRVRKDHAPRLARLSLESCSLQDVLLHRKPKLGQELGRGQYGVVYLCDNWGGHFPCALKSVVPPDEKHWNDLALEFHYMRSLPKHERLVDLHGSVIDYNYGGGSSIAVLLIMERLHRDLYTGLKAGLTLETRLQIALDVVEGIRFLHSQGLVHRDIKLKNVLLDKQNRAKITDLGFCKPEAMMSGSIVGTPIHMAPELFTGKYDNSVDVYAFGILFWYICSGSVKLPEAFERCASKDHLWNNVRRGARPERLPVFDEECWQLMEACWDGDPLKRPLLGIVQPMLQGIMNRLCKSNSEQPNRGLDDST

[5] = biological target: Angiopoietin-1 receptor (Homo sapiens) (UniProt Q02763); assay: Inhibition of human TEK at 1.82 nM by HotSpot assay relative to control
[6] = biological target: T2, Serine/threonine-protein kinase 3 (Homo sapiens) (UniProt Q13188); assay: Inhibition of human STK3 at 1.82 nM by HotSpot assay relative to control
T2 sequence (whole entry): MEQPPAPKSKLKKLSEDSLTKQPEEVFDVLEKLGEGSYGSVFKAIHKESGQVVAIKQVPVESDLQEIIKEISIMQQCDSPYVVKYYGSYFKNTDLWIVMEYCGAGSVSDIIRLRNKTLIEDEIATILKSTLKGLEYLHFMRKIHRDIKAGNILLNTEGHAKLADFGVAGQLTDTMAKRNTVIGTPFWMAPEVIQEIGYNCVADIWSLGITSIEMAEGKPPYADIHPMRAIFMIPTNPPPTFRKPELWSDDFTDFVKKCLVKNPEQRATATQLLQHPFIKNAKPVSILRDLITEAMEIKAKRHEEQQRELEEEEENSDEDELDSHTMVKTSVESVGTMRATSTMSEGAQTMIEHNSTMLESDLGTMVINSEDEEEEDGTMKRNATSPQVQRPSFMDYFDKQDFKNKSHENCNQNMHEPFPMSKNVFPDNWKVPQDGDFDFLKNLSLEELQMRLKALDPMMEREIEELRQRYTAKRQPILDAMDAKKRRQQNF

[7] = biological target: T3, Serine/threonine-protein kinase D2 (Homo sapiens) (UniProt Q9BZL6); assay: Inhibition of human PRKD2 at 1.82 nM by HotSpot assay relative to control
T3 sequence (whole entry): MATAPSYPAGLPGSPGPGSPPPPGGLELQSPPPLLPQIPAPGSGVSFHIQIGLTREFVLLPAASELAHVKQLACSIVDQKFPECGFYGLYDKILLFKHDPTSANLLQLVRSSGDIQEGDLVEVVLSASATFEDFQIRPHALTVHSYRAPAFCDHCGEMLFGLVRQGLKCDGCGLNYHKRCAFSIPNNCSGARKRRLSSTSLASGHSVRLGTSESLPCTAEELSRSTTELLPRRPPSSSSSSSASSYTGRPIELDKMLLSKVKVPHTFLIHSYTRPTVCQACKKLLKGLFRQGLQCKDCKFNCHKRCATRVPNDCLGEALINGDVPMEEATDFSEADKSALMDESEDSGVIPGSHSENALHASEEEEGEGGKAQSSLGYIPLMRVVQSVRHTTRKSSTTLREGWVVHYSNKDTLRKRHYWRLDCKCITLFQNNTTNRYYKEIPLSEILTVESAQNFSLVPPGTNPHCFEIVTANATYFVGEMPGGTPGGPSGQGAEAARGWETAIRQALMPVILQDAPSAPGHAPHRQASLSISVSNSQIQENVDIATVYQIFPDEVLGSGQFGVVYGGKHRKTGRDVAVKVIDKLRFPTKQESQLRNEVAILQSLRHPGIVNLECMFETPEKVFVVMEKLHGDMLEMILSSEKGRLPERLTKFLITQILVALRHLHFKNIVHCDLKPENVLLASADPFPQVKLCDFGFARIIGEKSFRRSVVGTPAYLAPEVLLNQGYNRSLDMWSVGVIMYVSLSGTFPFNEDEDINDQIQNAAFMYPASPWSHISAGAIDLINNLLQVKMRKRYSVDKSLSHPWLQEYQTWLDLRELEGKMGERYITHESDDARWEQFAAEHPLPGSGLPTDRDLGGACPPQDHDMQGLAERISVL

Angiopoietin-1 receptor (Homo sapiens), sequence (Q02763 whole entry): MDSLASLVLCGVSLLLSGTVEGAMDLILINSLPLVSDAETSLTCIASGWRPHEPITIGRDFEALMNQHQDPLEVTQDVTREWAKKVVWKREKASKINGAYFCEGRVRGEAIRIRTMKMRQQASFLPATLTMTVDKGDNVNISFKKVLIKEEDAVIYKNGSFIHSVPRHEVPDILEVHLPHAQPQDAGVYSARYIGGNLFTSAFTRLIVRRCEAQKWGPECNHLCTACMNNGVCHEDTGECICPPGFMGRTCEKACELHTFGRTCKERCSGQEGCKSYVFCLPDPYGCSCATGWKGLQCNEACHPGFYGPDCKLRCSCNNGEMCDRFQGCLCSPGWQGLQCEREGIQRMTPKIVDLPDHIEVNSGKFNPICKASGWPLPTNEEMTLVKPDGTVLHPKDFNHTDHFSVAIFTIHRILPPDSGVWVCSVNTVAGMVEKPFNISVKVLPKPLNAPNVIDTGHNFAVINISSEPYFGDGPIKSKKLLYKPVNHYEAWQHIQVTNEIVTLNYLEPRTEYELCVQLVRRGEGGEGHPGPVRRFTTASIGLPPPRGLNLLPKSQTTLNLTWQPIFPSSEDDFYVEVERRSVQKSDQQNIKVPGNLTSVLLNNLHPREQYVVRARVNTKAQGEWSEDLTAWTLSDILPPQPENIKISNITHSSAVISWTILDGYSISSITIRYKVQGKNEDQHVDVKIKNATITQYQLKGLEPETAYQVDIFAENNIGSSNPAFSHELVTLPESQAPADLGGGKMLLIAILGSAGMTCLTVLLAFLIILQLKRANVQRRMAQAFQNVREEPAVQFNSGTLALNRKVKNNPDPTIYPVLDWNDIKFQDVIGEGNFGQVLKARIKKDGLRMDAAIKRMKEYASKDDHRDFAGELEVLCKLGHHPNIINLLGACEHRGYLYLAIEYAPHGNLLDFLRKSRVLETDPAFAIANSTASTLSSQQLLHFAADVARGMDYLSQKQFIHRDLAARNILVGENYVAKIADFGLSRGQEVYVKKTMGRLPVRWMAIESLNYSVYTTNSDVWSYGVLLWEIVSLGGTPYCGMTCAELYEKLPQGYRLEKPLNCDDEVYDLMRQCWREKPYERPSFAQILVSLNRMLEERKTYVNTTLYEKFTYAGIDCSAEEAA
Mitogen-activated protein kinase kinase kinase 8 (Homo sapiens), sequence (P41279 whole entry): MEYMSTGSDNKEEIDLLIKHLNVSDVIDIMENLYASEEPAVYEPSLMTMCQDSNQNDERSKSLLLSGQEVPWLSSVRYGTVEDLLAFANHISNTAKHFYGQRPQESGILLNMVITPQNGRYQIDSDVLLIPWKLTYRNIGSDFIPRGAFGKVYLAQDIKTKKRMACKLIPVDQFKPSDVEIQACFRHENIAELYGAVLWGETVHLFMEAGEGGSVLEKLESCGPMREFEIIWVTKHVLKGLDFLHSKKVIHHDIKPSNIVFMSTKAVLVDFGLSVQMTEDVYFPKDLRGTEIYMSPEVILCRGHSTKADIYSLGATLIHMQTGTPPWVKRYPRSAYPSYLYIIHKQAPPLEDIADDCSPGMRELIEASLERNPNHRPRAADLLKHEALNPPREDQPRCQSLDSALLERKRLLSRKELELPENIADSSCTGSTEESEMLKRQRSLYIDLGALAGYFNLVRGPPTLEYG
Mitogen-activated protein kinase kinase kinase 20 (Homo sapiens), sequence (Q9NYL2 2-800 limits assumed): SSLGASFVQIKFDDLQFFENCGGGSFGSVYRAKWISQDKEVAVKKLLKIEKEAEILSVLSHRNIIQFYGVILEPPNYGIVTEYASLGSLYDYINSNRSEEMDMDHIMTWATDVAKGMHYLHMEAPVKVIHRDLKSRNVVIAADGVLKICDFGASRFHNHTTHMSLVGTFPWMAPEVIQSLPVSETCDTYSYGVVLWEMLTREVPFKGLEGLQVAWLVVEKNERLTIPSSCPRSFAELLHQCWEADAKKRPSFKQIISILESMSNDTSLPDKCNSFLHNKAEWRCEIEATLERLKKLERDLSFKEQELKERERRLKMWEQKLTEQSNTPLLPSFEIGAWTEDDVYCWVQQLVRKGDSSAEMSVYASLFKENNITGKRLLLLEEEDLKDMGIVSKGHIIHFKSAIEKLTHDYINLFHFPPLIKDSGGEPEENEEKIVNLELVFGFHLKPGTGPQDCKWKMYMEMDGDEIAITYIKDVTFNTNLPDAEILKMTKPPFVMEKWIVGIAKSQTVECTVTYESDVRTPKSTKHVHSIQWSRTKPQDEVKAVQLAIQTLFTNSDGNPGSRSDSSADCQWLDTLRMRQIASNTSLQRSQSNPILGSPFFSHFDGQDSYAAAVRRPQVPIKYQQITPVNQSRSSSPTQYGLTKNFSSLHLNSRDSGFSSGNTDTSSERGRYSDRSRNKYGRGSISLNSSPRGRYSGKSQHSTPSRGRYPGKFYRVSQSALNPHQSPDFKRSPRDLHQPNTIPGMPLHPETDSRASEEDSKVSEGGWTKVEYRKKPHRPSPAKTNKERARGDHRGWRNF
Tyrosine-protein kinase Lyn (Homo sapiens), sequence (P07948 2-512 limits assumed): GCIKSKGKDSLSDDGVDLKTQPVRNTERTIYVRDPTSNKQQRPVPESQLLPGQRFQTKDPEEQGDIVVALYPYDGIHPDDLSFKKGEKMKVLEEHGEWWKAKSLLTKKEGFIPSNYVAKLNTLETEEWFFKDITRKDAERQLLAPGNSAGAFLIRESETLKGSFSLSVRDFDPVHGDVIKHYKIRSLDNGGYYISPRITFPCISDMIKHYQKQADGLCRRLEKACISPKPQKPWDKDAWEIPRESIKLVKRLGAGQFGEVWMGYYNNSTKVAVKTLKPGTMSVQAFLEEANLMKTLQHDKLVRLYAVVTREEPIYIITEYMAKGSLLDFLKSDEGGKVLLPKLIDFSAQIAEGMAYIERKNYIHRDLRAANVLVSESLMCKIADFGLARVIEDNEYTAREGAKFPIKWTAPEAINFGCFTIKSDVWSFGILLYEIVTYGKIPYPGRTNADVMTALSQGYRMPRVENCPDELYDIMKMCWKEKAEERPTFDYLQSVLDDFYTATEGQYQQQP

## C[C@]1(O)C[C@@H](c2nc(-c3ccc4ccc(-c5ccccc5)nc4c3)c3c(N)nccn32)C1
[1]
  inhibition: -2.34%
[2]
  inhibition: 4.92%
[3]
  inhibition: 4.09%

## Nc1n[nH]c2nnc(-c3c(-c4ccccc4)nn4ccccc34)cc12
[4]
  inhibition: 4.06%

## C[C@@]1(C(=O)Nc2ccc(F)nc2)CCCN1c1nc(Nc2cc(C3CC3)n[nH]2)c2cccn2n1
[5]
  inhibition: 4%
[6]
  inhibition: 1.56%
[7]
  inhibition: 2.22%
